Data from PubChem BioAssay AID248 (DTP/NCI, 2004).
“And” between values parts separate entries of the source, which are not always exact repeats. Equal values may be shown once. Toxic doses and inconclusive results are not listed. Rule as the data show it: active = T/C of 150% or more; inactive = T/C below 125%.

Test system: L1210 leukemia ip in BDF1 mice, survival T/C
Test: NCI In Vivo Anticancer Drug Screen. Data for tumor model L1210 Leukemia (intraperitoneal) in B6D2F1 (BDF1) mice
Conditions: endpoint: mean survival time, higher = longer survival
Outline: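 Ratio derived from survival: compound-dosed mice over vehicle-dosed mice, all bearing a transplantable tumor.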

[1] = dose: 100.0 mg/kg/injection, schedule: Q01DX009 (ip), vehicle: Klucel (hydroxypropylcellulose) (HPC)
[2] = dose: 100.0 mg/kg/injection, schedule: Q04DX002 (ip), vehicle: Klucel (hydroxypropylcellulose) (HPC)
[3] = dose: 200.0 mg/kg/injection, schedule: Q01DX009 (ip), vehicle: Klucel (hydroxypropylcellulose) (HPC)
[4] = dose: 200.0 mg/kg/injection, schedule: Q04DX002 (ip), vehicle: Klucel (hydroxypropylcellulose) (HPC)
[5] = dose: 400.0 mg/kg/injection, schedule: Q01DX009 (ip), vehicle: Klucel (hydroxypropylcellulose) (HPC)
[6] = dose: 400.0 mg/kg/injection, schedule: Q04DX002 (ip), vehicle: Klucel (hydroxypropylcellulose) (HPC)
[7] = dose: 100.0 mg/kg/injection, schedule: Q01DX001 (ip), vehicle: saline
[8] = dose: 200.0 mg/kg/injection, schedule: Q01DX001 (ip), vehicle: saline
[9] = dose: 400.0 mg/kg/injection, schedule: Q01DX001 (ip), vehicle: saline
[10] = dose: 100.0 mg/kg/injection, schedule: Q04DX003 (ip), vehicle: saline with Tween-80
[11] = dose: 100.0 mg/kg/injection, schedule: Q04DX003 (ip), vehicle: other
[12] = dose: 200.0 mg/kg/injection, schedule: Q04DX003 (ip), vehicle: other
[13] = dose: 400.0 mg/kg/injection, schedule: Q04DX003 (ip), vehicle: other
[14] = dose: 200.0 mg/kg/injection, schedule: Q04DX003 (ip), vehicle: saline with Tween-80
[15] = dose: 400.0 mg/kg/injection, schedule: Q04DX003 (ip), vehicle: saline with Tween-80
[16] = dose: 100.0 mg/kg/injection, schedule: Q01DX001 (ip), vehicle: carboxymethylcellulose (CMC)
[17] = dose: 100.0 mg/kg/injection, schedule: Q01DX009 (ip), vehicle: saline with Tween-80
[18] = dose: 200.0 mg/kg/injection, schedule: Q01DX009 (ip), vehicle: saline with Tween-80
[19] = dose: 400.0 mg/kg/injection, schedule: Q01DX009 (ip), vehicle: saline with Tween-80
[20] = dose: 100.0 mg/kg/injection, schedule: Q04DX003 (ip), vehicle: saline
[21] = dose: 200.0 mg/kg/injection, schedule: Q04DX003 (ip), vehicle: saline
[22] = dose: 400.0 mg/kg/injection, schedule: Q04DX003 (ip), vehicle: saline
[23] = dose: 25.0 mg/kg/injection, schedule: Q04DX003 (ip), vehicle: saline
[24] = dose: 50.0 mg/kg/injection, schedule: Q04DX003 (ip), vehicle: saline

Measured: T/C

Cc1c(C#N)oc2cccc(O)c12
inactive: [1] 100 % of control | [2] 109 % of control | [3] 100 % of control | [4] 109 % of control | [5] 96 % of control | [6] 102 % of control

O=C(O)CC(C(=O)O)(c1c[nH]c2ccccc12)c1c[nH]c2ccccc12
inactive: dose: 75.0 mg/kg/injection, schedule: Q01DX001 (ip), vehicle: carboxymethylcellulose (CMC) 89 % of control | dose: 150.0 mg/kg/injection, schedule: Q01DX001 (ip), vehicle: carboxymethylcellulose (CMC) 93 % of control | dose: 300.0 mg/kg/injection, schedule: Q01DX001 (ip), vehicle: carboxymethylcellulose (CMC) 90 % of control

COc1cc2c(cc1OC)-c1c(=O)c3cc(OC)c(OC)cc3n([O-])[n+]1CC2
inactive: [7] 93 % of control | [8] 94 % of control | [9] 89 % of control

C/C(=N/N)c1ccc(Br)cc1
inactive: dose: 3.7 mg/kg/injection, schedule: Q01DX009 (ip), vehicle: saline 107 % of control | dose: 5.0 mg/kg/injection, schedule: Q01DX001 (ip), vehicle: saline 94 % of control | dose: 7.5 mg/kg/injection, schedule: Q01DX009 (ip), vehicle: saline 119 % of control | dose: 10.0 mg/kg/injection, schedule: Q01DX001 (ip), vehicle: saline 97 % of control | dose: 20.0 mg/kg/injection, schedule: Q01DX001 (ip), vehicle: saline 113 % of control | dose: 25.0 mg/kg/injection, schedule: Q04DX003 (ip), vehicle: saline with Tween-80 105 % of control | dose: 40.0 mg/kg/injection, schedule: Q01DX001 (ip), vehicle: saline 122 % of control | dose: 50.0 mg/kg/injection, schedule: Q04DX003 (ip), vehicle: saline with Tween-80 110 % of control | dose: 80.0 mg/kg/injection, schedule: Q01DX001 (ip), vehicle: saline 105 % of control | [10] 93 % of control

NC(=O)CNC(c1ccccc1)C(O)c1ccccc1 (stereo unspecified)
inactive: [1] 96 % of control | [2] 91 % of control | [3] 98 % of control | [4] 102 % of control | [5] 93 % of control | [6] 102 % of control

CC(CC(=O)c1ccccc1)C(C(=O)c1ccccc1)c1ccccc1 (stereo unspecified)
inactive: dose: 50.0 mg/kg/injection, schedule: Q01DX009 (ip), vehicle: other 101 % of control | dose: 100.0 mg/kg/injection, schedule: Q01DX009 (ip), vehicle: other 101 % of control | dose: 200.0 mg/kg/injection, schedule: Q01DX009 (ip), vehicle: other 101 % of control

CCCCNC(=O)c1ccccc1N
inactive: dose: 50.0 mg/kg/injection, schedule: Q04DX003 (ip), vehicle: other 103 % of control | [11] 95 % of control and 101 % of control | [12] 92 % of control | [13] 90 % of control

CC(=Nc1c2c(nc3ccccc13)CCCC2)N(C)C
inactive: dose: 12.0 mg/kg/injection, schedule: Q04DX003 (ip), vehicle: Klucel (hydroxypropylcellulose) (HPC) 105 % of control | dose: 25.0 mg/kg/injection, schedule: Q04DX003 (ip), vehicle: Klucel (hydroxypropylcellulose) (HPC) 100 % of control | dose: 50.0 mg/kg/injection, schedule: Q04DX003 (ip), vehicle: Klucel (hydroxypropylcellulose) (HPC) 104 % of control

COc1ccc(C=Nc2ccccc2)cc1
inactive: [10] 103 % of control | [14] 97 % of control | [15] 97 % of control

CCOC(=O)N(O)c1ccc(/C=C/c2ccccc2)cc1
inactive: [16] 98 % of control | dose: 200.0 mg/kg/injection, schedule: Q01DX001 (ip), vehicle: carboxymethylcellulose (CMC) 93 % of control | dose: 400.0 mg/kg/injection, schedule: Q01DX001 (ip), vehicle: carboxymethylcellulose (CMC) 98 % of control

CCCCOc1c(OCCCC)c(=O)c1=O
inactive: dose: 178.0 mg/kg/injection, schedule: Q01DX001 (ip), vehicle: saline 106 % of control | dose: 267.0 mg/kg/injection, schedule: Q01DX001 (ip), vehicle: saline 106 % of control

CCOC(=O)c1ccc(N(CC(=O)CN=[N+]=[N-])S(=O)(=O)c2ccc(C)cc2)cc1
inactive: [17] 96 % of control | [18] 96 % of control | [19] 89 % of control

CCOC(=O)c1ccc(NC(=O)Nc2ccc(SC)cc2)cc1N(CC)CC
inactive: [17] 104 % of control | [18] 94 % of control | [19] 92 % of control

CN(CC1CCCCC1=O)CC1CCCCC1=O (stereo unspecified)
inactive: dose: 100.0 mg/kg/injection, schedule: Q01DX001 (ip), vehicle: steriod suspending solution 97 % of control | dose: 200.0 mg/kg/injection, schedule: Q01DX001 (ip), vehicle: steriod suspending solution 104 % of control | dose: 400.0 mg/kg/injection, schedule: Q01DX001 (ip), vehicle: steriod suspending solution 106 % of control

CC1CCCCN1C(=O)Nc1ccc(Cl)cc1Cl (stereo unspecified)
inactive: dose: 50.0 mg/kg/injection, schedule: Q01DX009 (ip), vehicle: saline with Tween-80 91 % of control | [17] 102 % of control | [18] 98 % of control

COc1ccc(/C=C2\N=C(c3ccccc3)OC2=O)cc1
inactive: [7] 94 % of control | [20] 98 % of control | [8] 95 % of control | [21] 93 % of control | [9] 94 % of control | [22] 93 % of control

CC(C)C1(O)C=CC(C)(O)CC1 (stereo unspecified)
inactive: [20] 102 % of control | [21] 102 % of control | [22] 107 % of control

C=C(C)C1C2OC2C(=O)C2=CCCC(C)C21C (stereo unspecified)
inactive: [23] 97 % of control | [24] 100 % of control | [20] 100 % of control

O=C(O)C(F)(F)C(F)(F)C(F)(F)F.O=C(O)C(F)(F)C(F)(F)C(F)(F)F.O=C(O)C(F)(F)C(F)(F)C(F)(F)F.O=C(O)C(F)(F)C(F)(F)C(F)(F)F.[Rh].[Rh]
inactive: dose: 25.0 mg/kg/injection, schedule: Q04DX002 (ip), vehicle: saline with Tween-80 94 % of control | dose: 50.0 mg/kg/injection, schedule: Q04DX002 (ip), vehicle: saline with Tween-80 102 % of control | dose: 100.0 mg/kg/injection, schedule: Q04DX002 (ip), vehicle: saline with Tween-80 105 % of control

COc1ccc(C(=O)P(=O)(OC)OC)cc1
inactive: [10] 106 % of control | [14] 104 % of control | [15] 98 % of control

COc1cc2cc3c4cc(OC)c(OC)cc4cc[n+]3c(CCC(=O)O)c2cc1OC (tested in a mixture with another compound)
inactive: dose: 50.0 mg/kg/injection, schedule: Q04DX002 (ip), vehicle: Klucel (hydroxypropylcellulose) (HPC) 103 % of control | [2] 98 % of control | [4] 103 % of control

[Cl][Hg][CH2]C1COC([CH2][Hg][Cl])CO1 (stereo unspecified)
inactive: dose: 25.0 mg/kg/injection, schedule: Q01DX001 (ip), vehicle: carboxymethylcellulose (CMC) 90 % of control | dose: 50.0 mg/kg/injection, schedule: Q01DX001 (ip), vehicle: carboxymethylcellulose (CMC) 92 % of control | [16] 95 % of control

N#CCOC(=O)c1ccc[nH]1
inactive: dose: 10.0 mg/kg/injection, schedule: Q01DX001 (ip), vehicle: acetone 101 % of control | dose: 20.0 mg/kg/injection, schedule: Q01DX001 (ip), vehicle: acetone 100 % of control | dose: 40.0 mg/kg/injection, schedule: Q01DX001 (ip), vehicle: acetone 97 % of control

O=C(NO)c1cc(=O)[nH]o1
inactive: [10] 95 % of control | [14] 95 % of control | [15] 95 % of control

O=C(O)c1cc(-c2cccs2)c(C(=O)O)s1
inactive: [11] 103 % of control | [12] 93 % of control

O=C(O)COc1ccc(Cl)cc1Cl (tested in a mixture with another compound)
inactive: [23] 102 % of control | [24] 98 % of control | [16] 93 % of control | [11] 90 % of control | [12] 95 % of control | [13] 115 % of control
